In patent US10675286B2, “Heterocyclic compounds and uses thereof” (Infinity Pharmaceuticals, Inc., priority 2014, dated 2020):
Where two headings read alike, the source gives them in different places.

Key:
[1] = system: Myeloid Derived Suppressor Cell; assay: Myeloid Derived Suppressor Cell differentiation assay; assay type: cell-based
[2] = system: CXCL12 induced p-AKT in bone marrow derived macrophages; assay: CXCL12-induced p-AKT induction assay in differentiated, polarized macrophages; assay type: cell-based, mouse; conditions: Mus musculus, Macrophage
Text: Long bones from young C57B6 mice were harvested and bone marrow was extruded by gentle lavage of the bone marrow cavities with a 28 gauge needle. Red blood cells were removed using red blood cell lysis buffer (Sigma). Bone marrow cells were differentiated to macrophages using MCSF for 6 days (RPMI and 20% FCS) with one media change (with removal of all non-adherent cells) at day 3. Macrophages were polarized into M0 (MCSF), M1 (MCSF, IFNγ, and LPS for 1 day), or M2 (MCSF, IL4 for 2 days).
Polarized macrophages were lifted with Acutase, and plated at 0.5M cells per well (0.5 ml) in a deep well (2 ml) non adherant plate in polarization media for 1 hour. […] CXCL12 was added, and the cells were mixed on a plate shaker for 2 minutes. 1 ml of 37 degree FACS Lyse/fix buffer (BD bioscience) was added and the plate was mixed for 1 minute. The plates were spun and decanted and frozen at −80° C. Phospho AKT staining with anti Phospho AKT 473 PERCP labeled (Cell Signaling Technologies) was performed and measured by flow cytometry. Total cell MFI was used to calculate the effect of tested compound on CXCL12 induction of phospho AKT.

[3] = In vitro toxicology studies
Lewis Lung Carcinoma [4] = assay: Lewis Lung Carcinoma model; assay type: in vivo; conditions: single agent
[5] = system: CXCL12-induced pAKT in T-cells; assay: CXCL12-induced pAKT in T-cells of CLL patient PBMCs; assay type: cell-based, human
Text: There was a tight correlation between the EC50s observed in the CXCL12-induced pAKT assay and the T-cell migration assay.

[6] = system: CXCL12 stimulated pAKT S473 in T cells and monocytes; assay: Ex vivo whole blood CXCL12 stimulation of phospho-AKT, LLC-bearing mice; assay type: in vivo, mouse; conditions: LLC-bearing mice, 3, 7.5 or 15 mg/kg QD PO 12 days, 2 h post dose
Procedure: C57 BL/6 Albino mice were implanted with 1×10^6 cells in a SC injection in the hind flank. The cell implant material was generated from brei that was passaged from mouse to mouse. Treatment started when tumors were between 160-180 mm^3. Mice were dosed for 12 days, QD, PO with vehicle, 15, 7.5 or 3 mg/kg. On day 12 mice were dosed and terminal blood was collected 2 h post dose by cardiac stick collection. Blood was placed in EDTA K2 collection tube and stored at room temp for PD analysis.
Blood from each animal was aliquotted into 2 plates and warmed to 37° C. degrees. PBS was added to one plate as an unstimulated control. Murine CXCL12/SDF-1 was added to the second plate to a final concentration of 800 ng/mL and plate was returned to the 37° C. degree block. After 2 minutes of incubation, blood was lysed and fixed using paraformaldehyde. Samples were washed and frozen until flow cytometric analysis. T cells were gated using an antibody to CD3 and monocytes were gated as LY6G^− LY6C^high. Intracellular pAKT S473 was measured and percent positive was used for graphing.

TMD8 cell line = assay: Combination isobologram in TMD8 cell line; assay type: cell-based; conditions: combination of Compound AA and Compound BB
CT26 colon carcinoma = assay: CT26 allograft colon cancer model; assay type: in vivo, mouse
Text: CT26 is an N-nitroso-N-methylurethane-(NNMU) induced, undifferentiated mouse colon carcinoma cell line. It is cloned to generate the cell line designated CT26.WT (ATCC CRL-2638). The syngeneic CT26 colon cancer model is established by subcutaneous implantation of CT26 cells into BALB/c mice. This model has been extensively used to study the anti-tumor activity of immunotherapies (Yu et al., Clinical Cancer Research, 2010; Daraiswamy et al., Cancer Research, 2013). […] In some embodiments, a compound provided herein can be administered alone or in combination with an anti-PD-L1.
CT26 is an N-nitroso-N-methylurethane-(NNMU) induced, undifferentiated colon carcinoma cell line. It was cloned to generate the cell line designated CT26.WT (ATCC catalog number CRL-2638). 5-6 week old female, Balb/c mice (Jackson Labs) were implanted subcutaneously with 5×10^5 CT26 cells in 200 μl PBS. CT26 cells were cultured in DMEM supplemented with 10% FBS. Dosing commenced when tumors reached an average volume of […]. Administration of the compounds was performed according to the following Table:
Isotype control (Ultra-LEAF purified rat IgG2b, k isotype control, clone RTK4530, Lot B180477, Biolegend, Cat #70640)
Anti-PD-L1 antibody (Ultra-LEAF purified anti-mouse CD274-B7H1, PD-L1-, clone 10F9G2, Lot B178331, Biolegend, Cat #124318) […]
Body weights and tumor volumes were measured three times per week.

Lewis Lung Carcinoma [7] = assay: Lewis Lung Carcinoma (LLC) tumor brei model; assay type: in vivo, mouse
Procedure: LLC Lewis Lung carcinoma model: LLC cells are derived from a spontaneous lung tumor from a C57BL/6 mouse and can be studied as a s.c. tumor when injected in the flank, or as an orthotopic tumor if injected i.v., following which it localizes to the lung.
Compound BB was tested in the Lewis Lung Carcinoma model, which is known in the art and briefly described hereinabove.
LLC tumor brei model was prepared and injected subcutaneously into a mouse in the hind flank region. The tumor brei was prepared as follows. LL2-Luc tumor cells were grown in culture in DMEM+10% FBS. Cells were implanted @ 1×10^6 cells/100 uL SC in the flank of C57 Albino mice (male) When tumors reached 1000 mm3, tumors were harvested. Only the white, living tissue was harvested. Any material containing visable blood or necrotic area was isolated away from the tumor tissue. Tumor tissue was placed in a Dounce tissue homoginized with 5 mLs of warm DMEM (no FBS). About 1-2 grams of tumor tissue was collected, homogenized, pooled into 50 mL falcon tube, and cells were counted. Cells were spinned @ 12,000 RPM, and FBS was pooled off. Cells were resuspended to equal 1×10^7 cells/mL with sterile PBS. 100 uL of cells/mouse SC at the hind flank region were implanted. This process was repeated one more time before conducting brei tumor efficacy study.
Flow cytometry was performed to obtain a more extensive cellular subset analysis. In particular, the study examined T cell vs. Myeloid cells, Myeloid cell subsets, Regulatory vs. effector T cells, and Tumor markers vs. WBC (e.g., PD-L1 expression on tumor).
Different populations of tumor-associated myeloid cells can be identified by flow cytometry, e.g., monocytic immature myeloid cells (iMC), Granulocytic iMCs/Neutrophils, Tumor Associated Macrophages (TAMs), and Granulocytic MDSCs. The different populations, and panels for detecting MDSCs, are described in Cancer Discovery 2011; 1:54-67. Tumors may vary in their myeloid cell composition.

C[C@H](NC(=O)c1c(N)nn2cccnc12)c1cc2cccc(C#Cc3cnn(C)c3)c2c(=O)n1-c1ccccc1 [Compound BB]
ARG1 [1]: suppresses
VEGF [1]: suppresses
IC50 ([2]; read-out: IC50, CXCL12 induced p-AKT, differentiated and M1 polarized macrophage): ~14 nM
IC50 ([2]; read-out: IC50, CXCL12 induced p-AKT, differentiated and M2 polarized macrophage): ~8.4 nM
In vitro toxicology [3]: expected to have very low toxicity
activity in the Lewis Lung Carcinoma model (Lewis Lung Carcinoma [4]): single agent activity
Inhibition of CXCL12-induced pAKT in T-cells (FIG. 9) [5]: more strongly than a PI3K-δ inhibitor
Ex vivo whole blood CXCL12 stimulation of phospho-AKT in T cells (FIG. 58) [6]: inhibits the ex vivo whole blood stimulation of phosphor-AKT in T cells
Ex vivo whole blood CXCL12 stimulation of phospho-AKT in monocytes (FIG. 59) [6]: inhibits the ex vivo whole blood stimulation of phosphor-AKT in monocytes
effect of the combination (isobologram) (TMD8 cell line): synergistic effect
MDSC expansion after cyclophosphamide treatment (FIG. 28) (CT26 colon carcinoma; CT26 model, 5-9 day time frame): decreased
Monocytic iMCs (flow cytometry, FIG. 38B) (CT26 colon carcinoma; CT26 subcutaneous tumors): monocytic iMCs were decreased
Number of infiltrating TAMs (flow cytometry, FIG. 38A) (Lewis Lung Carcinoma [7]): the number of infiltrating TAMs was decreased
Tumor growth (FIGS. 25A and 25B) (Lewis Lung Carcinoma [7]; single agent): demonstrated single agent activity
CD206 staining (M2 macrophages, FIG. 39) (Lewis Lung Carcinoma [7]; vs control): CD206 staining was reduced
